The record followed here is patent US5217961A, “Condensed quinoline system N-glycosides” (Mect Corporation, priority 1988, dated 1993).

One test has as its system P-388. Kind of test: Effect on prolongation of life span in cancer implanted mouse (P-388). Type of test: in vivo, CDF mouse. As to conditions: day 1 and day 5, P-388 i.p.; for responders at 100 mg/kg / responders at 200 mg/kg / responders at 400 mg/kg / responders at 50 mg/kg / responders at 12.5 mg/kg / responders at 25 mg/kg: read-out: cure (mice cured / mice in group) (converted). The procedure:
Animal used: CDF mouse (6 mice/group)
Number of implanted cells: 10^6 cells/mouse
Day of administration: Day 1 and Day 5
Dosage: LD50 or 400 mg/kg/day at the maximum

A further test relates to KB cells. Kind of test: Function for inhibiting multiplication of KB cell (in vitro test). Type of test: cell-based, human. To be noted: compound added day 1, cells counted day 4, effective when ED50 < 4 μg/ml, 4320 min. Here is the method: KB cells, carcinomatous cell tumors, were transferred to in vitro floatation incubator systems, and added respectively with compounds of Examples 1 to 33. The results of cultivation added with these compounds were compared with the results of the control which was not added with any compound.
Cell used: KB Cell (Originating from human mouth epidermal cancer)
Culture medium: Eagles minimal essential medium (MEM) supplemented with 10% calf serum
Cultivation: 37° C. carbon dioxide gas incubator (5% CO2)
Day 0: KB cells were diluted in the culture medium to adjust the KB cell density to 2×10^4 /ml. Three ml of the cell suspension was inoculated in each of 60 mm plastic dishes. Two dishes per standard dosage were used.
Day 1: Test compound was added to the medium so that the final concentrations were set to 100, 30, 10, 3 and 1 μg/ml.
Day 4: Cells were scraped off from the dish using trypsin, and the cell number was countered using a Corter counter.
In generally accordance with the stipulations set forth by the National Cancer Institute (NCI) U.S.A., the concentration of compound necessary for exerting 50% growth inhibition (ED50) compared to the contral was determined.

The mark [1] stands for this setting: Mus musculus, P388, ip, 50 mg/kg, effective when T/C >= 120%, read-out: Ratio of Life Prolongation (%) (T/C %).
Setting [2] is: Mus musculus, P388, ip, 100 mg/kg, 6 mice/group.
Where [3] appears, read: Mus musculus, P388, ip, 200 mg/kg, 6 mice/group.
[4] abbreviates: Mus musculus, P388, ip, 400 mg/kg, 6 mice/group.
Where [5] appears, read: Mus musculus, P388, ip, 50 mg/kg, 6 mice/group.
[6] abbreviates: 25 mg/kg, effective when T/C >= 120%.
Setting [7] is: 50 mg/kg, effective when T/C >= 120%.
The mark [8] stands for this setting: Mus musculus, P388, ip, 12.5 mg/kg, 6 mice/group.
[9] abbreviates: Mus musculus, P388, ip, 25 mg/kg, 6 mice/group.

For the compound `COc1cc(NS(C)(=O)=O)ccc1Nc1c2ccccc2nc2c1[nH]c1ccc(NS(C)(=O)=O)cc12` [Compound 26, 2-methanesulfonamide-6-(4-methanesulfonamide-2-methoxyanilino)indolo[3,2-b]quinoline], the response vs control in vivo at 50 mg/kg with P-388 (setting [1]) is 143%.

In the case of `COc1cc(NS(C)(=O)=O)ccc1Nc1c2c(nc3c(C)cccc13)-c1c(C)cccc1C2` [Compound 1, 6-4-(methanesulfonamide-2-methoxyanilino)-1,10-dimethylindeno[3,2-b]quinoline], the responders at 100 mg/kg with P-388 (setting [2]) was 16.7%. In addition, the responders at 200 mg/kg in the test with P-388 (setting [3]) was 16.7%.

As to `COc1cc(NS(C)(=O)=O)ccc1Nc1c2cccc(C)c2nc2c1oc1ccccc12` [Compound 27, 6-(4-methanesulfonamide-2-methoxyanilino)-10-methylbenzofurano[3,2-b]quinoline], the responders at 200 mg/kg in the test on P-388 (setting [3]) is 16.7%. Also, the responders at 400 mg/kg in the test on P-388 (setting [4]) is 33.3%. In addition, the response vs control in vivo at 400 mg/kg in the test with P-388 (Mus musculus, P388, ip, 400 mg/kg, effective when T/C >= 120%, read-out: Ratio of Life Prolongation (%) (T/C %)) is 310%.

`COc1cc(NS(C)(=O)=O)ccc1Nc1c2c(nc3c(C)cccc13)-c1ccccc1C2` [Compound 2, 6-4-(methanesulfonamide-2-methoxyanilio)-10-methylindeno[3,2-b]quinoline]: the responders at 100 mg/kg in the test with P-388 (setting [2]) is 16.7%.

As to `COc1cc(NS(C)(=O)=O)ccc1Nc1c2ccccc2nc2c1[nH]c1ccc(N)cc12` [Compound 22, 2-amino-6-(4-methanesulfonamide-2-methoxyanilino)indolo[3,2-b]quinoline], the responders at 50 mg/kg in the test on P-388 (setting [5]) was 16.7%. For the same compound, in the test on P-388 (setting [1]), the response vs control in vivo at 50 mg/kg amounted to 242%.

On to “6-(4-methanesulfonamide-anilino)-indeno[3,2-b]quinoline [Compound 5]”, for which the “Conc. (ED50), concentration necessary for exerting 50% growth inhibition of KB cells” value with KB cells was less than 0.3 µg/mL. Also, the “Ratio of Life Prolongation (%) (T/C %)” value in the test with P-388 (setting [6]) came out at 140%; with P-388 (setting [7]) it was 135%; with P-388 (100 mg/kg, effective when T/C >= 120%) it was 163%; in the test with P-388 (200 mg/kg, effective when T/C >= 120%) it was 172%; in the test with P-388 (400 mg/kg, effective when T/C >= 120%), 165%.

Regarding `COc1cc(OC(C)=O)ccc1Nc1c2ccccc2nc2c1[nH]c1ccccc12` [Compound 21], the responders at 50 mg/kg in the test on P-388 (setting [5]) is 16.7%. The response vs control in vivo at 100 mg/kg with P-388 (Mus musculus, P388, ip, 100 mg/kg, effective when T/C >= 120%, read-out: Ratio of Life Prolongation (%) (T/C %)) is 212%.

Regarding `COc1cc(NS(C)(=O)=O)ccc1Nc1c2ccccc2nc2c1[nH]c1ccc(F)cc12` [Compound 19, 2-fluoro-6-(4-methanesulfonamide-2-methoxyanilino)indolo[3,2-b]quinoline], the responders at 12.5 mg/kg in the test with P-388 (setting [8]) was 50%. Also, the responders at 25 mg/kg with P-388 (setting [9]) was 33.3%. Also, in the test on P-388 (setting [1]), the response vs control in vivo at 50 mg/kg came out at 93%.

Consider `COc1cc(NS(C)(=O)=O)ccc1Nc1c2ccccc2nc2c1[nH]c1ccc(Cl)cc12` [Compound 12], for which the responders at 25 mg/kg in the test with P-388 (setting [9]) is 16.7%. Further, the responders at 50 mg/kg in the test with P-388 (setting [5]) is 16.7%.

Consider `COc1cc(NC(C)=O)ccc1Nc1c2ccccc2nc2c1[nH]c1ccccc12` [Compound 15], for which the responders at 100 mg/kg with P-388 (setting [2]) is 16.7%.

For the compound `COc1cc(NS(C)(=O)=O)ccc1Nc1c2ccccc2nc2c1oc1cc(C)ccc12` [Compound 31, 6-(4-methanesulfonamide-2-methoxyanilino)-3-methylbenzofurano[3,2-b]quinoline], the responders at 200 mg/kg in the test with P-388 (setting [3]) was 16.7%. For the same compound, the responders at 400 mg/kg in the test on P-388 (setting [4]) was 16.7%.

Take `COc1cc(NS(C)(=O)=O)ccc1Nc1c2cccc(C)c2nc2c1oc1cccc(C)c12` [Compound 28, 6-(4-methanesulfonamide-2-methoxyanilino)-1,10-dimethylbenzofurano[3,2-b]quinoline]: in the test with P-388 (Mus musculus, P388, ip, 200 mg/kg, effective when T/C >= 120%, read-out: Ratio of Life Prolongation (%) (T/C %)), the response vs control in vivo at 200 mg/kg was 103%.

With `COc1cc(NS(C)(=O)=O)ccc1Nc1c2cccc(C)c2nc2c1[nH]c1cc(C)ccc12` [Compound 11, 6-(4-methanesulfonamide-2-methoxyanilino)-3,10-dimethylindolo[3,2-b]quinoline], the responders at 12.5 mg/kg with P-388 (setting [8]) is 16.7%. Besides, in the test with P-388 (setting [9]), the responders at 25 mg/kg is 33.3%. Further, in the test with P-388 (setting [5]), the responders at 50 mg/kg is 16.7%.

Take `COc1cc(NS(C)(=O)=O)ccc1Nc1c2cccc(C)c2nc2c1[nH]c1ccccc12` [Compound 9]: the responders at 25 mg/kg in the test with P-388 (setting [9]) is 16.7%. Also, the responders at 50 mg/kg in the test on P-388 (setting [5]) was 66.7%.

On to `CN(C)c1cc(NS(C)(=O)=O)ccc1Nc1c2c(nc3ccccc13)-c1ccccc1C2` [Compound 6, 6-(4-methanesulfonamide-2-dimethylaminoanilino)-indeno[3,2-b]quinoline], for which the responders at 200 mg/kg in the test with P-388 (setting [3]) was 33.3%.

As for `COc1cc(O)ccc1Nc1c2ccccc2nc2c1[nH]c1ccccc12` [Compound 20], in the test with P-388 (setting [9]), the responders at 25 mg/kg was 16.7%. Also, the response vs control in vivo at 50 mg/kg in the test on P-388 (setting [1]) turned out to be 202%.

For the compound `COc1cc(NS(C)(=O)=O)ccc1Nc1c2ccccc2nc2c1[nH]c1ccc(NC3OC(CO)C(O)C(O)C3O)cc12` (stereo not shown) [Compound 24, N-{4-[(7-(glycosyl-1-amino)-10H-indolo[3,2-b]quinoline-11-yl)amino]-3-methoxyphenyl} methanesulfonamide], the “Conc. (ED50), concentration necessary for exerting 50% growth inhibition of KB cells” value in the test on KB cells is less than 0.3 µg/mL. In addition, the “cure (mice cured / mice in group)” value with P-388 (12.5 mg/kg, 6 mice/group) was 2/6. In addition, the “Ratio of Life Prolongation (%) (T/C %)” value in the test on P-388 (12.5 mg/kg, effective when T/C >= 120%) was 213%; in the test with P-388 (setting [6]) it was 145%; in the test on P-388 (setting [7]) it was 90%.

With `COc1cc(NS(C)(=O)=O)ccc1Nc1c2ccccc2nc2c1[nH]c1cccc(C)c12` [Compound 16, 6-(4-methanesulfonamide-2-methoxyanilino)-1-mehtylindolo[3,2-b]quinoline], in the test on P-388 (setting [8]), the responders at 12.5 mg/kg was 33.3%. In the test with P-388 (setting [9]), the responders at 25 mg/kg is 33.3%.

With `COc1cc(NS(C)(=O)=O)ccc1Nc1c2ccccc2nc2c1sc1cccc(C)c12` [Compound 33, 6-(4-methanesulfonamide-2-methoxyanilino)-1-methylbenzothieno[3,2-b]quinoline], in the test on P-388 (setting [3]), the responders at 200 mg/kg is 16.7%. For the same compound, the responders at 400 mg/kg in the test on P-388 (setting [4]) was 16.7%.

For `COc1cc(NS(C)(=O)=O)ccc1Nc1c2cccc(C)c2nc2c1[nH]c1cccc(C)c12` [Compound 10, 6-(4-methanesulfonamide-2-methoxyanilino)-1,10-dimethylindolo[3,2-b]quinoline], the responders at 100 mg/kg with P-388 (setting [2]) was 16.7%.

`COc1cc(NS(C)(=O)=O)ccc1Nc1c2ccccc2nc2c1[nH]c1ccc([N+](=O)[O-])cc12` [Compound 18, 6-(4-methanesulfonamide-2-methoxyanilino)-2-nitroindolo[3,2-b]quinoline]: in the test with P-388 (setting [8]), the responders at 12.5 mg/kg is 16.7%. Besides, the response vs control in vivo at 12.5 mg/kg with P-388 (Mus musculus, P388, ip, 12.5 mg/kg, effective when T/C >= 120%, read-out: Ratio of Life Prolongation (%) (T/C %)) was 164%. Further, in the test on P-388 (Mus musculus, P388, ip, 25 mg/kg, effective when T/C >= 120%, read-out: Ratio of Life Prolongation (%) (T/C %)), the response vs control in vivo at 25 mg/kg amounted to 131%. Further, in the test on P-388 (setting [1]), the response vs control in vivo at 50 mg/kg was found to be 70%.

As for `COc1cc(NS(C)(=O)=O)ccc1Nc1c2cccc(C)c2nc2c1oc1cc(C)ccc12` [Compound 29, 6-(4-methanesulfonamide-2-methoxyanilino)-3,10-dimethylbenzofurano[3,2-b]quinoline], in the test on P-388 (setting [2]), the responders at 100 mg/kg was 16.7%. Besides, the responders at 200 mg/kg with P-388 (setting [3]) was 16.7%.

`COc1cc(NS(C)(=O)=O)ccc1Nc1c2ccccc2nc2c1[nH]c1ccc(NC(C)=O)cc12` [Compound 25]: the response vs control in vivo at 50 mg/kg in the test with P-388 (setting [1]) came to 184%.

Regarding `COC(=O)Nc1ccc(Nc2c3ccccc3nc3c2[nH]c2ccccc23)c(OC)c1` [Compound 14], the responders at 100 mg/kg in the test with P-388 (setting [2]) was 16.7%.
